Results reported in ChEMBL document CHEMBL1150977, “A quantitative analysis of kinase inhibitor selectivity” (Nat Biotechnol, 2008).

What was measured:
[1] = biological target: Serine/threonine-protein kinase 32B (Homo sapiens, UniProt Q9NY57)
[2] = biological target: Leukocyte tyrosine kinase receptor (Homo sapiens, UniProt P29376)
[3] = biological target: T1, Tyrosine-protein kinase JAK3 (Homo sapiens, UniProt P52333)
T1 sequence (P52333 whole entry): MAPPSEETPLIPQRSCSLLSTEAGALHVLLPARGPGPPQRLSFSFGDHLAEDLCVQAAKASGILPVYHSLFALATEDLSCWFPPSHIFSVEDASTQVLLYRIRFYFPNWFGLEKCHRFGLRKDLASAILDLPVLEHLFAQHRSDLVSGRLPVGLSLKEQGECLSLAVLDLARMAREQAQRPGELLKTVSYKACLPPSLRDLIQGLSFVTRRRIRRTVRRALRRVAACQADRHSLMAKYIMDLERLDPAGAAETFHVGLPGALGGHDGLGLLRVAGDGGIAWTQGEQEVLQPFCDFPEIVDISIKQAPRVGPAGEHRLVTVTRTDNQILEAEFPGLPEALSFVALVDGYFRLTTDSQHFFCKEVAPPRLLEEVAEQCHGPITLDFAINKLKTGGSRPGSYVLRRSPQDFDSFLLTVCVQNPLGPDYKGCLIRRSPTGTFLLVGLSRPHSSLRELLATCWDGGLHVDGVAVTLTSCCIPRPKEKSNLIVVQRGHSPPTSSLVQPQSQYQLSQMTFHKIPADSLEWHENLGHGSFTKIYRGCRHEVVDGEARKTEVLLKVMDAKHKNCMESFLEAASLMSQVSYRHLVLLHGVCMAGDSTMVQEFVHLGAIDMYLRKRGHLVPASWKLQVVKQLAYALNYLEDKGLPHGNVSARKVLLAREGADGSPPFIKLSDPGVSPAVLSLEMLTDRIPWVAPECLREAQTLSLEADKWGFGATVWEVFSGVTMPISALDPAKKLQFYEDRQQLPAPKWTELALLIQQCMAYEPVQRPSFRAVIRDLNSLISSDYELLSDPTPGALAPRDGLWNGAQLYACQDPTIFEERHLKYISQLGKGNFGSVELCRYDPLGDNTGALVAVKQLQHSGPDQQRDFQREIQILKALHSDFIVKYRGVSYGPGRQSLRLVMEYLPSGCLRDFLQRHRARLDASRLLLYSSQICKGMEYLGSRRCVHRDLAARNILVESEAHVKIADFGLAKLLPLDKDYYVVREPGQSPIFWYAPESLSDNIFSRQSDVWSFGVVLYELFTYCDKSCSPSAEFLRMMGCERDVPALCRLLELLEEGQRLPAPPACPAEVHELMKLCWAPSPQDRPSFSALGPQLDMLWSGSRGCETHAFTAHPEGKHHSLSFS

[4] = biological target: eIF-2-alpha kinase GCN2 (Homo sapiens, UniProt Q9P2K8, S808G)
[5] = biological target: Cyclin-dependent kinase 7 (Homo sapiens, UniProt P50613)
[6] = biological target: T2, Tyrosine-protein kinase Mer (Homo sapiens, UniProt Q12866)
T2 sequence (Q12866 whole entry): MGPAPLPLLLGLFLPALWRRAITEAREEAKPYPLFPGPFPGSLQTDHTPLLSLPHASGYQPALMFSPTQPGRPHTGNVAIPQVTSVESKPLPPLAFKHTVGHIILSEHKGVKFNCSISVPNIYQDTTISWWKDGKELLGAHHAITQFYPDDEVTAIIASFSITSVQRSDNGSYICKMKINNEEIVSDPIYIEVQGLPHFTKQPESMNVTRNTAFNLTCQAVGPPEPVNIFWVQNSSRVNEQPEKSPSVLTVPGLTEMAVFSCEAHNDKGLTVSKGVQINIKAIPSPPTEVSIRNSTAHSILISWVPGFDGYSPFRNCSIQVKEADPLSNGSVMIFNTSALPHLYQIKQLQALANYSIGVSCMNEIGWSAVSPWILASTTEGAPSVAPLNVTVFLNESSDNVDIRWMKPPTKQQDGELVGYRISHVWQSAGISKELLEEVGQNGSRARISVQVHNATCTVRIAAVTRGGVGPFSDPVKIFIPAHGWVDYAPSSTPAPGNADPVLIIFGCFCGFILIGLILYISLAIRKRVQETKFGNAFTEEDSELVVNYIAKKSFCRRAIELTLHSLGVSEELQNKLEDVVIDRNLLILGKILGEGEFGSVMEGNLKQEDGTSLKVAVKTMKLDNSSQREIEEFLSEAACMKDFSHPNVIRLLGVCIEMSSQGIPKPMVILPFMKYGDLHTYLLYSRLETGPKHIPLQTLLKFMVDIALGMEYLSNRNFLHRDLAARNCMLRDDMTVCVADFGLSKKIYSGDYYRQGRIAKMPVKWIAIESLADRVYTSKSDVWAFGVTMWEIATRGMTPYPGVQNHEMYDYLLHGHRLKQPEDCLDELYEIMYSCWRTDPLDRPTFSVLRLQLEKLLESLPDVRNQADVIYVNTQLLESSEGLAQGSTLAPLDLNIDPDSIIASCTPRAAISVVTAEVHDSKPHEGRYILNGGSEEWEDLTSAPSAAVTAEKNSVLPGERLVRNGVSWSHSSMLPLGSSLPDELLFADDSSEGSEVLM

## COCC(=O)NC/C=C/c1ccc2ncnc(Nc3ccc(Oc4ccc(C)nc4)c(C)c3)c2c1 [CP-724714]
[1]
  Kd: > 10 µM
[2]
  Kd: > 10 µM
[3]
  Kd: > 10 µM
[4]
  Kd: > 10 µM
[5]
  Kd: > 10 µM
[6]
  Kd: > 10 µM

## Nc1nc(Nc2ccc(S(N)(=O)=O)cc2)nn1C(=O)c1c(F)cccc1F [JNJ-7706621]
[1]
  Kd: > 10 µM
[2]
  Kd: > 10 µM
[4]
  Kd: 3.9 µM

## CCOc1cc2ncc(C#N)c(Nc3ccc(F)c(Cl)c3)c2cc1NC(=O)/C=C/CN(C)C [PELITINIB]
[1]
  Kd: 6 µM
[2]
  Kd: > 10 µM
[3]
  Kd: 0.025 µM
[4]
  Kd: 0.29 µM
[5]
  Kd: > 10 µM
[6]
  Kd: 1.3 µM

## Oc1ccc(-c2nc(-c3ccncc3)c(-c3ccc(F)cc3)[nH]2)cc1 [SB-202190]
[1]
  Kd: 4.9 µM
[2]
  Kd: > 10 µM
[3]
  Kd: > 10 µM
[4]
  Kd: > 10 µM
[5]
  Kd: > 10 µM
[6]
  Kd: > 10 µM

## NC(=O)c1ccc(-c2nc(-c3ccc4c(c3)OCO4)c(-c3ccccn3)[nH]2)cc1 [SB-431542]
[1]
  Kd: > 10 µM
[2]
  Kd: > 10 µM
[3]
  Kd: > 10 µM
[4]
  Kd: > 10 µM
[5]
  Kd: > 10 µM
[6]
  Kd: > 10 µM
